Source: ChEMBL document CHEMBL2057091, “InCl3-catalysed synthesis of 2-aryl quinazolin-4(3H)-ones and 5-aryl pyrazolo[4,3-d]pyrimidin-7(6H)-ones and their evaluation as potential anticancer agents” (Bioorg Med Chem Lett, 2012)

Key:
[1] = tested on: COLO 205; experiment: Antiproliferative activity against human COLO205 cells by MTT assay; type: functional, cell-based
[2] = tested on: MDA-MB-231; experiment: Antiproliferative activity against human MDA-MB-231 cells by MTT assay; type: functional, cell-based
[3] = tested on: K562; experiment: Antiproliferative activity against human K562 cells by MTT assay; type: functional, cell-based
[4] = target: T1, NAD-dependent protein deacetylase sirtuin-1 (Homo sapiens) (UniProt Q96EB6); experiment: Inhibition of Sirt1 expressed in human U2OS cells assessed as acetylation of p53 at 10 uM; type: cell-based
T1 sequence (whole entry): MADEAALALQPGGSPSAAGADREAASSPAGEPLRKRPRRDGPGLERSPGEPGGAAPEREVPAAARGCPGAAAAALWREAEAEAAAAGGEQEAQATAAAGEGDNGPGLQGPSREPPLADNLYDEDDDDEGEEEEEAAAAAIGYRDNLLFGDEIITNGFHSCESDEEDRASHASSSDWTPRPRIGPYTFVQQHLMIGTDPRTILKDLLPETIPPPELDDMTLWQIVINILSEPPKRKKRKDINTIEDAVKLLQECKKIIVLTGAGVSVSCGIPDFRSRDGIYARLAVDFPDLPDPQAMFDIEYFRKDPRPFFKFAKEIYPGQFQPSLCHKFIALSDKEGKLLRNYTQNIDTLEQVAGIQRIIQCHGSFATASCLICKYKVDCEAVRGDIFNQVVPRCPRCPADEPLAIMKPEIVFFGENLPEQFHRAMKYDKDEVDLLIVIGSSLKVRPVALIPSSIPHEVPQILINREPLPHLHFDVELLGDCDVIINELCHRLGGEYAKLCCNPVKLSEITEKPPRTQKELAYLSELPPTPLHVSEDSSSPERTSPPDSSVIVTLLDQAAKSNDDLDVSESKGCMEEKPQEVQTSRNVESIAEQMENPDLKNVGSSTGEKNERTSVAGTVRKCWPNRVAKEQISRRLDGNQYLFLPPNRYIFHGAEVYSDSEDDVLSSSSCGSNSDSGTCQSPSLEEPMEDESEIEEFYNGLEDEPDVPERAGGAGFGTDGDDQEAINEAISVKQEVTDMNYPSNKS

IC50 ([1]; Homo sapiens, COLO 205) [µM] | IC50 ([2]; Homo sapiens, MDA-MB-231) [µM] | IC50 ([3]; Homo sapiens, K562) [µM] | IC50 ([1]; colo 205) [µM] | IC50 ([2]; mda-mb-231) [µM] | IC50 ([3]; k562) [µM] | inhibition [4] [%] | Compound
14 | 48 | 19 |  |  |  |  | CCCc1nn(C)c2c(=O)[nH]c(-c3ccc(C)cc3)nc12
11 | 41 | 21 |  |  |  |  | O=c1[nH]c(-c2ccc(Br)cc2)nc2ccccc12
23 | 37 | 20 | 12 | 42 | 19 |  | O=c1[nH]c(-c2ccc([N+](=O)[O-])cc2)nc2ccccc12
12 | 41 | 18 |  |  |  |  | O=c1[nH]c(-c2cccc(Cl)c2)nc2ccccc12
25 | 46 | 17 |  |  |  |  | CCCc1nn(C)c2c(=O)[nH]c(-c3ccc(Br)cc3)nc12
 |  |  |  |  |  | 79 | Cc1ccc(C(=O)Nc2ccc(S(=O)(=O)O)c3cc(S(=O)(=O)O)cc(S(=O)(=O)O)c23)cc1NC(=O)c1cccc(NC(=O)Nc2cccc(C(=O)Nc3cc(C(=O)Nc4ccc(S(=O)(=O)O)c5cc(S(=O)(=O)O)cc(S(=O)(=O)O)c45)ccc3C)c2)c1
11 | 40 | 16 |  |  |  |  | CCCc1nn(C)c2c(=O)[nH]c(-c3cccc(Cl)c3)nc12
7 | 25 | 15 |  |  |  | 63 | CCCc1nn(C)c2c(=O)[nH]c(-c3ccc(O)c(OC(F)F)c3)nc12
8 | 28 | 24 |  |  |  |  | COc1ccc(-c2nc(O)c3ccccc3n2)cc1
10 | 20 | 17 |  |  |  | 48 | Oc1nc(-c2ccc(F)cc2)nc2ccccc12
10 | 51 | 15 |  |  |  |  | CCCc1nn(C)c2c(=O)[nH]c(-c3ccc(Cl)cc3)nc12
10 | 44 | 21 |  |  |  | 61 | CCCc1nn(C)c2c(=O)[nH]c(-c3cccc([N+](=O)[O-])c3O)nc12
9 | 44 | 21 |  |  |  |  | CCCc1nn(C)c2c(=O)[nH]c(-c3ccc(OC)cc3)nc12
12 | 38 | 24 |  |  |  | 59 | CCCc1nn(C)c2c(=O)[nH]c(-c3cccc(Br)c3)nc12

Compound | IC50 ([1]; Homo sapiens, COLO 205) [µM] | IC50 ([2]; Homo sapiens, MDA-MB-231) [µM] | IC50 ([3]; Homo sapiens, K562) [µM] | IC50 ([1]; colo 205) [µM] | IC50 ([2]; mda-mb-231) [µM] | IC50 ([3]; k562) [µM] | inhibition [4] [%]
COc1ccc2c(c1)[nH]c1c(C)nccc12 [HARMINE] | 8 | 32 | 14 |  |  |  | 
